Laboratory results published in ChEMBL document CHEMBL1159303, “Isolation and structure determination of obyanamide, a novel cytotoxic cyclic depsipeptide from the marine cyanobacterium Lyngbya confervoides” (J Nat Prod, 2002).
Converted amounts (≈) assume the structure as drawn.

How the values were obtained:
[1] = tested on: KB; experiment: Cytotoxicity against human KB cells; assay type: functional, cell-based
[2] = tested on: LoVo; experiment: Cytotoxicity against human LoVo cells; assay type: functional, cell-based

CC[C@H]1CC(=O)O[C@@H](C)C(=O)N(C)[C@@H](C(C)C)C(=O)N(C)[C@@H](Cc2ccccc2)C(=O)N[C@@H](C)c2nc(cs2)C(=O)N1 [OBYANAMIDE]
IC50 [1]: 0.58 µg/mL (≈ 0.967 µM) | IC50 [2]: 3.14 µg/mL (≈ 5.24 µM)
